Results on 3 molecules are retold here after patent EP0055996A1, “Antithrombotic treatment” (T AND R CHEMICALS, INC., priority 1980, dated 1982).

The subject of assay [1] is coagulation factors. The experiment in a line: In vitro partial thromboplastin time (PTT) coagulation assay. Conditions: for PTT(sec) REPLICATIONS I: replication I. Further details: species or system human. The protocol:
(§1) In vitro assays of the product of each of Examples A to C and certain of the Examples included in European Application No 81302950.1 were conducted for coagulation factors as described in "Human Blood Coagulation., Haemostasis and Thrombosis", edited by Rosemary Biggs, published by Blackwell Scientific Publications, Oxford, England (2nd Edition), pages 670-705, 1976.

For assay [2], the system named is coagulation factors. Nature of the assay: In vitro prothrombin time (PT) coagulation assay. Also on record: species or system human. Conditions: for PT(sec) REPLICATIONS I: replication I. How it is done:
as §1

Setting [3] is: Used at 0.01 Molar Concentration Based on NaHSO3.
The mark [4] stands for this setting: Used at 0.01 Molar Concentration Based on NaHSO3, replication II.
The mark [5] stands for this setting: Used at 0.01 Molar Concentration Based on NaHSO3, replication III.

In the case of `O=S([O-])O.[Na+]` [NaHSO3 in water, sodium bisulphite], the “PTT(sec) REPLICATIONS I” value with coagulation factors [1] (setting [3]) was 64.4 s. For the same molecule, the “PTT(sec) REPLICATIONS II” value in the assay with coagulation factors [1] (setting [4]) worked out at 63.2 s. For the same molecule, the “PTT(sec) REPLICATIONS III” value in the assay with coagulation factors [1] (setting [5]) came to 63.9 s. Further, the “PT(sec) REPLICATIONS I” value in the assay with coagulation factors [2] (setting [3]) turned out to be 20.2 s. The “PT(sec) REPLICATIONS II” value in the assay on coagulation factors [2] (setting [4]) amounted to 20.3 s. Further, the “PT(sec) REPLICATIONS III” value with coagulation factors [2] (setting [5]) was found to be 20.0 s.
On to `O=S(=O)(O)CO` [Sodium formaldehyde bisulphite], for which the “PTT(sec) REPLICATIONS I” value in the assay on coagulation factors [1] (setting [3]) was determined as 63.5 s. Moreover, in the assay with coagulation factors [2] (setting [3]), the “PT(sec) REPLICATIONS I” value came to 20.5 s.
For the molecule `O=S=O` [aqueous solutions of sulphur dioxide, sulphur dioxide], the “ability to affect PTT values” in the assay with coagulation factors [1] (no conditions given) was “display a capacity to lengthen PT and PTT values at least to the extent indicated above”. The “ability to affect PT values” in the assay with coagulation factors [2] (no conditions given) was “display a capacity to lengthen PT and PTT values at least to the extent indicated above”.
